Holding throughout (assay): inhibition of tumour cell growth, NCI panel, 48 h
The subject of test [1] is PC-3 prostate.
For test [2], the system named is HT29 colon.
Test [3] deals with CCRF-CEM leukemia.
Test [4] concerns UACC-257 melanoma.
For test [5], the system named is SR leukemia.
Test [6] deals with K-562 leukemia.
Test [7] has as its system SK-MEL-28 melanoma.
In test [8] the test system is MOLT-4 leukemia.
In test [9] the test system is SF-295 CNS.
Test [10] has as its system SF-268 CNS.

Molecules are shown by their SMILES.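 Results reflect a 48-hour exposure of cells in 96-well plates to compound at five concentrations. GI50 marks 50% less growth. The concentration for full growth arrest is given as TGI.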 Some results are limits rather than exact numbers.

Data on eight compounds can be found in PubChem BioAssay (NCI).

As for `CCCCCCN(CCCCCC)CCCNc1nccc2ccccc12`, the GI50 in test [1] was 2 µM; in [2], 0.513 µM; in test [3], 2.47 µM; in test [4] it was 1.84 µM; in [5], 1.65 µM; in [6], 1.95 µM. Further, the GI50 in [7] was 1.64 µM; in test [8], 2.56 µM; in [9], 0.951 µM; in test [10], 2.53 µM. Also, the TGI was found to be 5.54 µM in [1]; 1.95 µM in test [2]; 10.7 µM in [3]; 3.54 µM in test [4]; 4.6 µM in [5]; 5.18 µM in test [6]. Also, the TGI in [7] turned out to be 3.17 µM; in test [8] it was 7.71 µM; in test [9], 2.24 µM; in test [10] it was 8.51 µM.
As to `CCCCCCCCCc1cc(O)c(O)cc1CCCCCCCCC`, the TGI in test [1], in test [2], in [3], in test [4], in test [5] and in test [6] was > 10 µM in each case. In addition, the TGI in test [7], in test [8], in [9] and in test [10] was > 10 µM throughout.
As for `O=C1C2=C(C(=O)c3c(O)ccc(O)c31)N(c1ccc(N3CCOCC3)nc1)Cc1ccccc1O2`, the GI50 in [1] is 0.387 µM; in [2], 0.294 µM; in test [3], 0.0778 µM; in [4], 0.556 µM; in [5] it was 0.108 µM; in test [6], 0.0889 µM. In addition, the GI50 is 0.275 µM in [7], 0.0872 µM in test [8], 2.01 µM in test [9] and 1.37 µM in test [10]. Moreover, the TGI is 1.89 µM in test [1]; 0.787 µM in test [2]; 1.52 µM in [4]; > 100 µM in [5]; 0.785 µM in test [7]; 4.63 µM in test [9]. This compound also returned a TGI in test [10] of 4.06 µM.
On to `CSC1=Nc2c(c(C)c(-c3ccccc3)n2COC(CO)CO)C2=NC(=O)C(C)N12` (configuration not stated), for which the GI50 was > 100 µM in test [1]; > 100 µM in [2]; > 100 µM in [3]; > 100 µM in [4]; 4.07 µM in test [5]; > 100 µM in test [6]. Further, the GI50 is > 100 µM in test [7], 29.6 µM in test [8], > 100 µM in test [9] and > 100 µM in test [10]. For the same compound, the TGI in test [1], in [2], in test [3], in test [4], in [5] and in test [6] was > 100 µM in each case. Also, the TGI in [7], in test [8], in [9] and in test [10] was > 100 µM throughout.
Take `CCN(CC)CCn1ncc2ccc3c(c(=O)c4cccnc4n3CCN(CC)CC)c21`: the TGI came out at 3.85 µM in [1]; 3.13 µM in test [2]; 1.82 µM in test [3]; 3.95 µM in test [4]; 1.3 µM in test [5]; 3.33 µM in test [6]. In addition, the TGI in [7] is 4.01 µM; in [8], 1.43 µM; in [9] it was > 9.52 µM; in test [10], 4.66 µM.
As for `CC/C(=N\Nc1nc2ccccc2n1C)c1ccccn1`, the GI50 is 0.0327 µM in test [1]; < 0.0269 µM in test [2]; 0.0294 µM in [3]; 0.0735 µM in [4]; 0.0428 µM in [5]; 0.0102 µM in test [6]. Also, the GI50 is 0.214 µM in test [7], < 0.0174 µM in [8], 0.17 µM in test [9] and 0.194 µM in test [10]. The TGI in [1] was 13.8 µM; in [2], 18 µM; in test [3], > 36 µM; in test [4], 2.64 µM; in [5], 12.4 µM; in test [6], > 100 µM. Further, the TGI in test [7] was 13.5 µM; in [8] it was 7.47 µM; in test [9], 1.28 µM; in test [10] it was 11.1 µM.
With `CCN1CCC[C@H]1c1cc(O)c2c(c1OC)C[C@H]1C[C@H]3[C@H](N)C(=O)C(C(N)=O)=C(O)[C@@]3(O)C(=O)C1=C2O`, the GI50 in test [1] was 0.151 µM; in test [2], 0.112 µM; in [3], 0.0634 µM; in test [4], 0.126 µM; in [5], 0.0436 µM; in test [6], 0.0599 µM. The GI50 is 0.0668 µM in test [7], 0.0587 µM in test [8], 0.208 µM in test [9] and 0.0709 µM in test [10]. Moreover, the TGI is 8.76 µM in test [1]; 5.43 µM in test [2]; 1.73 µM in test [3]; 2.11 µM in test [4]; 0.94 µM in [5]; > 100 µM in test [6]. The TGI was found to be 1.26 µM in [7], 0.666 µM in test [8], 3.8 µM in [9] and 5.25 µM in [10].
Consider `Cc1cccc(CN(C)c2ccc(CO)c(Cl)c2)c1`, for which the GI50 is 22.2 µM in test [1]; 11.9 µM in test [2]; 27 µM in test [3]; 0.565 µM in test [4]; 24.7 µM in test [5]; 8.76 µM in [6]. Also, the GI50 was 19.3 µM in test [7], 22.2 µM in test [8], 4.87 µM in [9] and 33.7 µM in test [10]. The TGI was 96.3 µM in test [1]; > 55.3 µM in [2]; > 100 µM in [3]; 2.22 µM in test [4]; > 73.8 µM in test [5]; > 100 µM in test [6]. Further, the TGI in test [7] was > 76.1 µM; in test [8], > 75.5 µM; in test [9], 46.8 µM; in test [10], > 100 µM.
